From patent US20240180909A1, “Dosing Regimens for Elagolix” (AbbVie Inc., priority 2018, published 2024)

System: premenopausal women with heavy menstrual bleeding associated with uterine fibroids
Test: Twelve month study with 300 mg BID (initial studies and extension study), heavy menstrual bleeding responder rate
Assay type: in vivo, human
Experimental: This study was a randomized, double-blind, multicenter, extension study designed to evaluate the efficacy and safety of elagolix alone and in combination with an exemplary low-dose hormone (add-back) therapy (estradiol (“E2”) 1.0 mg/norethindrone acetate (“NETA”) 0.5 mg) in premenopausal women with heavy menstrual bleeding associated with uterine fibroids for up to 12 months total (an initial 6 months on active treatment in one of two replicate initial (i.e., pivotal) studies and an additional 6 months in this extension study.
Subjects who received elagolix 300 mg twice daily or elagolix 300 mg twice daily in combination with E2/NETA in the initial studies continued to receive the same treatment (n=94 and 206, respectively) while subjects who received placebo in the initial studies were randomized in an equal ratio to one of the two treatment groups (elagolix 300 mg BID (n=56) or elagolix 300 mg BID+E2/NETA (n=54)).
The primary efficacy endpoint was the percentage of subjects meeting the responder criteria: a) menstrual blood loss (MBL) volume<80 mL during the final, AND b) 50% or greater reduction in MBL volume from baseline to the final month. […]

Hypoestrogenic effects, such as hot flush and reduction in bone mineral density (initial and extension studies, elagolix 300 mg BID): observed
Structure (SMILES): COc1cccc(-c2c(C)n(Cc3c(F)cccc3C(F)(F)F)c(=O)n(C[C@H](NCCCC(=O)O)c3ccccc3)c2=O)c1F [Elagolix, 4-((R)-2-[5-(2-fluoro-3-methoxy-phenyl)-3-(2-fluoro-6-trifluoromethyl-benzyl)-4-methyl-2,6-dioxo-3,6-dihydro-2H-pyrimidin-1-yl]-1-phenyl-ethylamino)-butyric acid]
safety signals (up to twelve months of treatment): no new safety signals
